Experiments:
[1] = tested on: BV-2 microglial cells (Mus musculus); assay: Antineuroinflammatory activity in mouse BV2 cells assessed as inhibition of LPS-induced nitric oxide production at 50 uM preincubated for 10 mins followed by LPS stimulation for 24 hrs by Griess assay
[2] = Antineuroinflammatory activity in […] of LPS-induced nitric oxide production preincubated for 10 mins followed by LPS stimulation for 24 hrs by Griess assay; format: functional, cell-based; conditions: BV-2
[3] = Cytotoxicity against […] cells assessed as decrease in cell viability up to 100 uM preincubated for 10 mins followed by LPS stimulation for 24 hrs by MTT assay; format: toxicity, cell-based; conditions: bv-2, 24 h

SMILES	inhibition at 50 µM [1] [%]	IC50 [2] [µM]	Activity [3]
CC1Cc2c3c(cc(O)c2C(=O)O1)O[C@@]1(C)[C@@H](O)C[C@H]2C(C)(C)C(=O)C=C[C@]2(C)[C@@H]1C3 (stereo partly drawn)	< 50		
CC1=C2CC(=O)OC(C)(C)C2=CC[C@@]2(C)[C@H]1C[C@@]1(C)C(=O)[C@@]3(C)O[C@]14COC(=O)[C@@]42C3=O	< 50		
COC(=O)[C@]12C(=O)[C@@](C)(O)C(=O)[C@](C)(C[C@H]3C(C)=C4CC(=O)OC(C)(C)C4=CC[C@@]31C)[C@]21CO1	< 50		
C[C@H]1O[C@@H]2OC(=O)[C@]3(C)CC4=C(CO)C5=C(CC(=O)[C@]4(C)[C@H](C1=O)[C@H]23)C(C)(C)OC(=O)C5	< 50		
CC(=O)O[C@@H]1c2c3c(cc(O)c2C(=O)OC1C)O[C@@]1(C)[C@@H](O)C[C@H]2C(C)(C)C(=O)C=C[C@]2(C)[C@@H]1C3 (stereo partly drawn)	< 50		
C[C@@H]1O[C@@H]2OC(=O)[C@]3(C)C[C@@H]4[C@](C)(C(=O)C=C5C(=CC(=O)OC5(C)C)[C@@]45CO5)[C@H](C1=O)[C@H]23 [BERKELEYACETAL C]		0.8	Non-Toxic
COc1ccc2c(c1)c(CC(=O)O)c(C)n2C(=O)c1ccc(Cl)cc1 [INDOMETHACIN]		34.5	
